In patent publication US8383690B2, “Pharmaceutical composition useful for the treatment of peptic ulcer diseases” (Council of Scientific and Industrial Research, priority 2006, dated 2013):
In brackets after ≈: the same amount, converted by molar mass. Read-outs that look alike come from different tables or passages of the source. Each block holds one molecule with its values, some of them ahead of it.

Key:
H. pylori [1] = assay: Disc diffusion sensitivity assay against H. pylori; assay type: cell-based, Helicobacter pylori; details: for zone of inhibition at 100 µg/disc / zone of inhibition at 200 µg/disc: Helicobacter pylori, read-out: Inhibition Zone Diameter; for zone of inhibition at 100 µg/disc: 100 μg/disc; for zone of inhibition at 200 µg/disc: 200 μg/disc
Swiss albino mice = assay: Toxicity evaluation (mortality) in Swiss albino mice; assay type: in vivo
Method: The compound oenothein C was checked for mortality of the Swiss albino mice.
Maximum dosage of 250 mg/Kg body weight of compound oenothein C was given to 5 swiss albino mice via oral route.

H. pylori [2] = assay: MIC/MBC by microbroth dilution assay against H. pylori; assay type: cell-based, Helicobacter pylori
gastric H+,K+-ATPase = molecular target: T1, gastric H+,K+-ATPase (Sus scrofa, UniProt P19156); assay: Anti gastric proton pump activity: H+,K+-ATPase inhibition in pig gastric membranes; assay type: biochemical
T1 construct: Pig gastric membranes enriched in apical and tubulovesicular membranes were prepared according to [59]; from tissue; host or cells: pig gastric mucosa membranes (apical and tubulovesicular)
T1 sequence (P19156 whole entry): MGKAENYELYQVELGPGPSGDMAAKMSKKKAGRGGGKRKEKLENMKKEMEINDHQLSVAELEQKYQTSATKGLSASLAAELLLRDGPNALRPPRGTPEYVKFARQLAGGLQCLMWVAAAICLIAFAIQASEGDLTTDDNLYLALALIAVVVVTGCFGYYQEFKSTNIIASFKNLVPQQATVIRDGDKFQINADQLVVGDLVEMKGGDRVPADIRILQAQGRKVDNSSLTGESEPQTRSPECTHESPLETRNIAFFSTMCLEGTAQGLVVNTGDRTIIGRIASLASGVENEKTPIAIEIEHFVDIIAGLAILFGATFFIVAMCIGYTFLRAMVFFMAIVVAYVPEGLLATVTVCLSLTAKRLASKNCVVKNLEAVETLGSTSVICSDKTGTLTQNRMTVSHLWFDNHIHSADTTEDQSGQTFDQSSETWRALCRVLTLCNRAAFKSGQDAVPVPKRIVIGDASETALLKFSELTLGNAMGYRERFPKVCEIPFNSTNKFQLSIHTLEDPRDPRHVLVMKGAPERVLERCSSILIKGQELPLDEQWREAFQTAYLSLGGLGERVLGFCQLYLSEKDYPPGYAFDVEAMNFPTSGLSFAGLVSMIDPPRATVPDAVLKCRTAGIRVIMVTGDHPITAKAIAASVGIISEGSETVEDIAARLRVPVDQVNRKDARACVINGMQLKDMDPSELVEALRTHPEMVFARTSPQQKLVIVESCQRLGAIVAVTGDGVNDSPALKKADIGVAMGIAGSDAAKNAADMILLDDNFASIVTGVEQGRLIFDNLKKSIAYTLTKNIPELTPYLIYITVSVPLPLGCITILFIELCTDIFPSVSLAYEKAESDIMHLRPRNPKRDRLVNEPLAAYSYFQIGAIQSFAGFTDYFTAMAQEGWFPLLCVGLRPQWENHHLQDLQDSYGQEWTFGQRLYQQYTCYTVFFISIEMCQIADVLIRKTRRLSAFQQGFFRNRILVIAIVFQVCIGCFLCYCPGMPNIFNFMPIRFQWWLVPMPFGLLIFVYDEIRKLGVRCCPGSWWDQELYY
T1 sequence (P18434 whole entry partner): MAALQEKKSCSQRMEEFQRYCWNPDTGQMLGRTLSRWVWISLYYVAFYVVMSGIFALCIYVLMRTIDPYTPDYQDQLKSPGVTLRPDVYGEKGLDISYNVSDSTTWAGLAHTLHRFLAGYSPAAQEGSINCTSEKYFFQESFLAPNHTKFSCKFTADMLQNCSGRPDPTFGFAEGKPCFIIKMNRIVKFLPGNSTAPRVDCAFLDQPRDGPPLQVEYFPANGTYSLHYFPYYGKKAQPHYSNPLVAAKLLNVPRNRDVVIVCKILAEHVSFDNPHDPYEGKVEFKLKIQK
Method: Pig gastric membranes enriched in apical and tubulovesicular membranes were prepared according to [59].
The H^+,K^+-ATPase activity was measured at 37° C. in a 1-mL reaction mixture containing 2 mM MgCl2, 2 mM ATP, 10 mM PIPES (pH 6.8), 10 mM KCl and 10-12 μg membrane protein. An otherwise complete assay mixture was preincubated for 10 min in presence and absence of different concentrations of oenothein C or omeprazole before initiating the reaction with ATP. After incubation for 10 min, the reaction was terminated by the addition of 1 mL ice-chilled TCA (14%).
K^+-stimulated activity, referred to as H^+,K^+-ATPase, was calculated as the difference between the activity in presence of Mg plus K^+ and the basal activity (Mg^+-ATPase) in presence of Mg^+ alone. […] Following enzymatic assay method, the inhibitory activity of oenothein C was assessed. The effects are quantitated in terms of percent inhibition of H^+,K^+-ATPase, and compared with that of omeprazole, a specific inhibitor of gastric H^+,K^+-ATPase.

S. typhi = assay: Antibacterial microbroth dilution assay in Muller Hinton broth (NCCLS); assay type: cell-based; details: Salmonella enterica
Excerpt: (§1) Further, the antibacterial activity of oenothein C was examined against four aerobic bacteria (1 gram positive, B. cereus and 3 gram negative, S. typhi, E. coli & K. pneumoniae) by microbroth dilution assay in Muller Hinton broth essentially by following NCCLS (National Commmittee for Clinical Laboratory Standards) guideline.

B. cereus = assay: as above; assay type: cell-based; details: Bacillus cereus, gram positive
Excerpt: as §1

K. pneumoniae = assay: as above; assay type: cell-based; details: Klebsiella pneumoniae, gram negative
Excerpt: as §1

E. coli = assay: as above; assay type: cell-based; details: Escherichia coli, gram negative
Excerpt: as §1

Solubility in solvents = assay type: physicochemical; details: methanol, acetone, DMSO
Method: The molecule oenothein C has been isolated from the flowers of the plant Woodfordia fruticosa, abundantly available in the Indian subcontinent. Dried flowers of Woodfordia fruticosa were extracted by soaking overnight with 1:1 methanol-water at room temperature. The process was repeated thrice. The combined extract was evaporated at 45° C. in a rotary evaporator to get the crude extract. This was partitioned between n-butanol and water. The layers were separately evaporated at 45° C. to obtain two fractions. The n-butanol soluble fraction was chromatographed repeatedly over diaion HP-20 and sephadex LH-20 columns following bioassay guided fractionation technique to obtain pure oenothein C as an off-white solid, amorphous in nature.

[3] = Helicobacter pylori, ATCC43504, strain ATCC 43504
[4] = Helicobacter pylori, ATCC43504, strain ATCC 43504, read-out: MIC
[5] = Helicobacter pylori, ATCC43629, strain ATCC 43629
[6] = Helicobacter pylori, ATCC43629, strain ATCC 43629, read-out: MIC
[7] = Helicobacter pylori, ATCC49503, strain ATCC 49503
[8] = Helicobacter pylori, ATCC49503, strain ATCC 49503, read-out: MIC
[9] = Helicobacter pylori, NCTC26695, strain NCTC 26695
[10] = Helicobacter pylori, NCTC26695, strain NCTC 26695, read-out: MIC
[11] = Helicobacter pylori, strain 80A
[12] = Helicobacter pylori, strain 80A, read-out: MIC

MIC (H. pylori [2]; [4]): 50 µg/mL (≈ 292 µM)
MIC (H. pylori [2]; [6]): 1.56 µg/mL (≈ 9.11 µM)
MIC (H. pylori [2]; [8]): 1.56 µg/mL (≈ 9.11 µM)
MIC (H. pylori [2]; [10]): 1.56 µg/mL (≈ 9.11 µM)
SMILES: Cc1ncc([N+](=O)[O-])n1CCO [Metronidazole, metronidazole]
MBC (H. pylori [2]; [3]): 100 µg/mL (≈ 584 µM)
MBC (H. pylori [2]; [5]): 6.25 µg/mL (≈ 36.5 µM)
MBC (H. pylori [2]; [9]): 10 µg/mL (≈ 58.4 µM)
MBC (H. pylori [2]; [11]): > 100 µg/mL

% Inhibition of H+,K+-ATPase (gastric H+,K+-ATPase; 3 μM): 10-30%
inhibition at 3 µM (gastric H+,K+-ATPase; 3 μM): ~20%
inhibition at 15 µM (gastric H+,K+-ATPase; 15 μM): 40 to 60%
inhibition at 30 µM (gastric H+,K+-ATPase; 30 μM): 80 to 90%
degree of inhibition of the gastric proton pump (gastric H+,K+-ATPase; over 3-30 μM): 10-90%
SMILES: COc1ccc2[nH]c([S+]([O-])Cc3ncc(C)c(OC)c3C)nc2c1 (centres unmarked) [Omeprazole, omeprazole]

activity in the MIC/MBC anti-H. pylori test (H. pylori [2]): did not show any activity
activity in the anti-proton pump test (gastric H+,K+-ATPase): did not show any activity
SMILES: COC(=O)c1cc(O)c(O)c(O)c1 [methyl gallate]
activity in the disc diffusion anti-H. pylori test (H. pylori [1]): did not show any activity

The next lines start with the molecule.

SMILES: O=C(O[C@H]1[C@H](O)[C@@H](CO)OC(O)[C@@H]1OC(=O)c1cc(O)c(O)c(O)c1Oc1cc2c(=O)oc3c(O)c(O)cc4c(=O)oc(c1O)c2c34)c1cc(O)c(O)c(O)c1 (mixture of isomers) [Oenothein C, D-Glucose 2-[2-[(5,10-dihydro-3,7,8-trihydroxy-5,10-dioxo[1]benzopyrano[5,4,3-cde][1]benzopyran-2-yl)oxy]-3,4,5-trihydroxy benzoate]-3-(3,4,5-trihydroxybenzoate)]
inhibition zone diameter, range over strains (H. pylori [1]; 100-200 μg/disc, 6 different strains of H. pylori): 1.7-2.5 cm
zone of inhibition at 100 µg/disc (H. pylori [1]; strain 80A): 20 mm
zone of inhibition at 200 µg/disc (H. pylori [1]; strain 80A): 25 mm
zone of inhibition at 100 µg/disc (H. pylori [1]; strain 121A): 17 mm
zone of inhibition at 200 µg/disc (H. pylori [1]; strain 121A): 20 mm
Inhibition Zone Diameter (H. pylori [1]; strain ATCC 43504, 100 μg/disc): 2.0 cm
Inhibition Zone Diameter (H. pylori [1]; strain ATCC 43504, 200 μg/disc): 2.7 cm
Inhibition Zone Diameter (H. pylori [1]; strain ATCC 43629, 100 μg/disc): 1.9 cm
Inhibition Zone Diameter (H. pylori [1]; strain ATCC 43629, 200 μg/disc): 2.3 cm
Inhibition Zone Diameter (H. pylori [1]; strain ATCC 49503, 100 μg/disc): 1.7 cm
Inhibition Zone Diameter (H. pylori [1]; strain ATCC 49503, 200 μg/disc): 2.2 cm
Inhibition Zone Diameter (H. pylori [1]; strain NCTC 26695, 100 μg/disc): 2.0 cm
Inhibition Zone Diameter (H. pylori [1]; strain NCTC 26695, 200 μg/disc): 2.4 cm
health and behaviour under observation (Swiss albino mice; 250 mg/Kg body weight, oral route, 15 days): found to remain healthy, and no behavioral abnormality were noted
mortality (Swiss albino mice; 250 mg/Kg body weight, oral route, after 24 hours): no mortality
toxic effect (Swiss albino mice; single dose level up to 250 mg/kg body weight): does not show any toxic effect
fold less competent in respect of metronidazole MIC values (H. pylori [2]; 5 strains): 2-20 fold
MBC (H. pylori [2]; [3]): > 50 µg/mL
MIC (H. pylori [2]; [4]): 25 µg/mL
MBC (H. pylori [2]; [5]): > 50 µg/mL
MIC (H. pylori [2]; [6]): 25 µg/mL
MBC (H. pylori [2]; [7]): 50 µg/mL
MIC (H. pylori [2]; [8]): 6.25 µg/mL
MBC (H. pylori [2]; [9]): 25 µg/mL
MIC (H. pylori [2]; [10]): 12.5 µg/mL
MBC (H. pylori [2]; [11]): 50 µg/mL
MIC (H. pylori [2]; [12]): 25 µg/mL
minimum inhibitory concentration (MIC), range over strains (H. pylori [2]; clinical and standard strains of H. pylori): 6.25 to 25.0 µg/mL
fold less potent as compared with clarithromycin and amoxycillin, based on MIC values (H. pylori [2]; different strains): 500-1000 fold
inhibition at 0.13 µM (gastric H+,K+-ATPase; 0.13 μM): 20 to 30%
inhibition at 0.64 µM (gastric H+,K+-ATPase; 0.64 μM): 50 to 70%
inhibition at 1.3 µM (gastric H+,K+-ATPase; 1.30 μM): 70 to 90%
IC50 (gastric H+,K+-ATPase; concentration range 0.13 to 1.3 μM, read-out: IC50 of gastric proton pump activity in vitro): 600 to 800 nM
degree of inhibition of the gastric proton pump (gastric H+,K+-ATPase; over 0.13-1.30 μM): 20-90%
degree of inhibition of gastric proton pump higher as compared with omeprazole (gastric H+,K+-ATPase; versus omeprazole, identical conditions): about 20 fold
MIC (S. typhi): > 400 µg/mL
MIC (B. cereus): > 400 µg/mL
MIC (K. pneumoniae): > 400 µg/mL
MIC (E. coli): > 400 µg/mL
solubility (Solubility in solvents): soluble in methanol, acetone and DMSO

SMILES: CC1(C)S[C@@H]2[C@H](NC(=O)[C@H](N)c3ccc(O)cc3)C(=O)N2[C@H]1C(=O)O [Amoxycillin, amoxycillin]
MBC (H. pylori [2]; [3]): 0.05 µg/mL (≈ 0.137 µM)
MIC (H. pylori [2]; [4]): 0.025 µg/mL (≈ 0.0684 µM)
MBC (H. pylori [2]; [5]): 0.05 µg/mL (≈ 0.137 µM)
MIC (H. pylori [2]; [6]): 0.025 µg/mL (≈ 0.0684 µM)
MBC (H. pylori [2]; [7]): 0.05 µg/mL (≈ 0.137 µM)
MIC (H. pylori [2]; [8]): 0.0125 µg/mL (≈ 0.0342 µM)
MBC (H. pylori [2]; [9]): < 1 µg/mL
MIC (H. pylori [2]; [10]): 0.1 µg/mL (≈ 0.274 µM)
MBC (H. pylori [2]; [11]): 0.08 µg/mL (≈ 0.219 µM)
MIC (H. pylori [2]; [12]): 0.02 µg/mL (≈ 0.0547 µM)
MIC (H. pylori [2]; strain 80A): 0.02 µg/mL (≈ 0.0547 µM)
MIC (H. pylori [2]; strain ATCC 43504): 0.025 µg/mL (≈ 0.0684 µM)
MIC (H. pylori [2]; strain ATCC 43629): 0.025 µg/mL (≈ 0.0684 µM)
MIC (H. pylori [2]; strain ATCC 49503): 0.013 µg/mL (≈ 0.0356 µM)
MIC (H. pylori [2]; strain NCTC 26695): 0.1 µg/mL (≈ 0.274 µM)

SMILES: CC[C@H]1OC(=O)[C@H](C)[C@@H](O[C@H]2C[C@@](C)(OC)[C@@H](O)[C@H](C)O2)[C@H](C)[C@@H](O[C@@H]2O[C@H](C)C[C@H](N(C)C)[C@H]2O)[C@](C)(OC)C[C@@H](C)C(=O)[C@H](C)[C@@H](O)[C@]1(C)O [Clarithromycin, clarithromycin]
Inhibition Zone Diameter (H. pylori [1]; strain 80A, 10 ng/disc): 1.8 (10) cm
Inhibition Zone Diameter (H. pylori [1]; strain 121A, 10 ng/disc): 1.8 (10) cm
Inhibition Zone Diameter (H. pylori [1]; strain ATCC 43504, 40 ng/disc): 2.0 (40) cm
Inhibition Zone Diameter (H. pylori [1]; strain ATCC 43629, 100 ng/disc): 1.7 (100) cm
Inhibition Zone Diameter (H. pylori [1]; strain ATCC 49503, 5 ng/disc): 1.7 (5) cm
Inhibition Zone Diameter (H. pylori [1]; strain NCTC 26695, 400 ng/disc): 2.0 (400) cm
MBC (H. pylori [2]; [3]): 0.05 µg/mL (≈ 0.0668 µM)
MIC (H. pylori [2]; [4]): 0.025 µg/mL (≈ 0.0334 µM)
MBC (H. pylori [2]; [5]): 0.1 µg/mL (≈ 0.134 µM)
MIC (H. pylori [2]; [6]): 0.05 µg/mL (≈ 0.0668 µM)
MBC (H. pylori [2]; [7]): 0.013 µg/mL (≈ 0.0174 µM)
MIC (H. pylori [2]; [8]): 0.00625 µg/mL (≈ 0.00836 µM)
MBC (H. pylori [2]; [9]): 0.1 µg/mL (≈ 0.134 µM)
MIC (H. pylori [2]; [10]): 0.0625 µg/mL (≈ 0.0836 µM)
MBC (H. pylori [2]; [11]): 0.04 µg/mL (≈ 0.0535 µM)
MIC (H. pylori [2]; [12]): 0.02 µg/mL (≈ 0.0267 µM)
MIC (H. pylori [2]; strain 80A): 0.02 µg/mL (≈ 0.0267 µM)
MIC (H. pylori [2]; strain ATCC 43504): 0.025 µg/mL (≈ 0.0334 µM)
MIC (H. pylori [2]; strain ATCC 43629): 0.050 µg/mL (≈ 0.0668 µM)
MIC (H. pylori [2]; strain ATCC 49503): 0.006 µg/mL (≈ 0.00802 µM)
MIC (H. pylori [2]; strain NCTC 26695): 0.063 µg/mL (≈ 0.0842 µM)
